Assays:
MOG-induced EAE = MOG-induced EAE with GA blocking and s.c. daily GA (Example 2.4); assay type: in vivo, C57B1 mice
Description: The C57B1 strain of mouse was selected, as it is an established EAE model.
Laquinimod was administered daily orally for 30 days at dose level of 5.0 mg/kg or 25.0 mg/kg.
Disease was induced in the mice by the injection of the encephalitogenic emulsion (MOG/CFA). Laquinimod was administered orally for 30 consecutive days from the initiation of the study.
EAE induction EAE was induced by injecting the encephalitogenic mixture (emulsion) consisting of MOG (150.0 μg/mouse). A volume of 0.2 ml of emulsion was injected subcutaneously into the flanks of the mice. Pertussis toxin was injected intraperitoneally on the day of induction and 48 hours later (total amount was 0300 μg/mouse in 0.2 ml dosage volume).
The emulsion (for groups 2 and 3 and groups 1 and 4 to 8) were made from equal parts of oil and liquid portions (1:1) in two syringes connected to each other with Leur lock, transferred to insulin syringe and 0.2 ml was injected to the right flank of each mouse. The dose of the MOG in all the groups (1 to 8) was 150 μg/mouse.
The test concentrations of laquinimod were prepared in purified water. For high dose (25.0 mg/kg) 2.5 mg/mL stock solution were prepared (groups #3, 6 and 8). The stock solutions were diluted 1:5 to yield 0.5 mg/mL for dose level of 5.0 mg/kg for groups 5 and 7. Laquinimod was administered to the respective groups by gavage at a volume of 0.2 ml/mouse.
Every day one tube was thawed and brought to RT.
Clinical signs Scaring of EAE clinical signs was started from Day 10 post EAE induction and was continued daily until Day 30. The clinical signs were recorded according to a grading system described in the table 11 below
mice having scores of 1 and above were considered sick. When the first clinical sign appeared all mice were given food soaked in water, which was spread on different places on the bedding of the cages. An animal which continued to have score 4 for three days was killed on humane grounds and given score 5 on the next day. For calculation purposes, the score of animals that were sacrificed or died was carried forward.
• The number of sick animals in each group were summed. • The incidence of disease was calculated as
• The number of dead or moribund animals in each group were summed. • The mortality of disease was calculated as
• The mean duration of disease expressed in days was calculated as
• The mean onset of disease expressed in days was calculated as
• The mean maximal score (MMS) of each group was calculated as
• The daily scores of each mouse in the test group were summed and the Individual mean daily score (IMS) was calculated as […]

[1] = system: relapsing remitting (RR) EAE; test: Relapsing remitting EAE in Biozzi mice, combination study (Example 2.6); assay type: in vivo
Description: EAE is an animal model for multiple sclerosis. In the Biozzi AB/H EAE mice, a RR EAE can be induced. […] Re-injection of an encephalitogen can induce a chronic relapsing disease that enables measuring long-term effects on subsequent relapses rather than immediate effects.
The EAE induction was performed according to procedure “RR-EAE.Biozzi” The Biozzi mice were weighed and injected subcutaneously and re-injected one week later with encephalitogenic agent (MSCH emulsion). 0.3 mL of the encephalitogenic agent containing 1.0 mg of MSCH and 200.0 μg of MT was injected subcutaneously, at two sites in the right flank of each mouse (0.15 mL at each site). The second injection was done in a similar manner in the left flank, one week later.
On the day of first injection of encephalotigen, the Biozzi mice were randomly allocated to eight treatment groups as follows: Tables 16-17.
The 5.0 mg/mL laquinimod stock solution was diluted 1:5 to yield 1 mg/mL.
The mice in all the groups were administered daily by oral gavage a volume dose level of […] of the respective test formulations from the day the mice are allocated to the treatment groups (first injection of encephalitogen) for 59 consecutive days until the termination of the study.
The mice were examined and scored according to the following table, until the termination of the study (60 days after initiation of treatment).
The activity of the test articles for the first and second phase of RR EAE was calculated by comparing the incidence of disease, mortality, onset and duration of disease, group mean score and mean maximal score to the control group. Calculations were carried separately and together for the first and the second relapse.

[2] = GA blocking 12.5 mg/kg once with encephalitogen, alone or + LAQ 25.0 mg/kg oral daily 30 d
[3] = GA blocking 12.5 mg/kg once with encephalitogen, alone or + LAQ 25.0 mg/kg oral daily 30 d, listed as GA blocking
[4] = first and second attacks together, GA 12.5 mg/kg oral daily 59 d
[5] = first attack, GA 12.5 mg/kg oral daily
[6] = second attack, GA 12.5 mg/kg oral daily

## L-glutamic acid polymer with L-alanine, L-lysine and L-tyrosine, acetate (salt) [GA]
MOG-induced EAE; GA 250 mg/kg s.c. daily 10 d
  % Inhibition 1 (incidence): 23.5%
  GMS % Inhibition 3: 38.1%
  GMS value: 1.3 ± 1.1
  Incidence: 13/20
  MMS % Inhibition 2: 26.5%
  MMS value: 2.5 ± 1.9
  Mean Duration: 8.3 ± 6.7 days
  Mean Onset: 22.5 ± 6.7 days
MOG-induced EAE; [2]
  % Inhibition 1 (incidence): 52.9%
  GMS value: 0.5 ± 0.9
  Incidence: 8/20
  MMS % Inhibition 2: 70.6%
  Mean Duration: 4.3 ± 6.3 days
  Mean Onset: 26.6 ± 6.4 days
MOG-induced EAE; [3]
  GMS % Inhibition 3: 76.2%
  MMS value: 1.0 ± 1.5
MOG-induced EAE; GA blocking 12.5 mg/kg once with encephalitogen, alone or + LAQ 25.0 mg/kg oral daily 30 d, listed as GA-Block
  GMS % Inhibition 3: (76.2) %
[1]; [4]
  GMS % inhibition: 21.7%
  GMS value: 1.8
  Incidence: 12/14
  Incidence % inhibition: 7.7%
  MMS % inhibition: 0.0%
  MMS value: 3.6
  Mean Duration: 23.8 ± 16.2 days
[1]; [5]
  % Inhibition 1 (incidence): 7.7%
  IMS % Inhibition 3: 15.6%
  IMS value: 58.6 ± 70.5
  Incidence: 12/14
  MMS % Inhibition 2: 2.8%
  MMS value: 3.5 ± 1.6
  Mean Duration: 15.7 ± 14.0 days
[1]; [6]
  % Inhibition 1 (incidence): 31.2%
  IMS % Inhibition 3: 35.5%
  IMS value: 30.5 ± 33.0
  Incidence: 6/12
  MMS % Inhibition 2: 31.0%
  MMS value: 2.0 ± 1.7
  Mean Duration: 9.4 ± 10.5 days

From patent US20160038532A1, “Treatment of Multiple Sclerosis With Combination of Laquinimod and Glatiramer Acetate” (TEVA PHARMACEUTICAL INDUSTRIES, LTD., priority 2011, published 2016)
